Literature values, collected in US10849879B2, “Localized modulation of tissues and cells to enhance therapeutic effects including renal denervation” (Mercator MedSystems, Inc., priority 2011, dated 2020).
Several values for one entry are separate records, joined by “and”; a condition that tells them apart may be missing. Identical values can stand only once.

System: axon

Substance: (2-(Hexahydro-1(2H)-azocinyl)ethyl)guanidine sulfate (1:1) [guanethidine monosulfate]
- concentrations producing axon retraction in vitro: ≥ 0.2 mM and ≥ 60 μg/mL
